This note sets out measurements from patent publication US10322118B2, “Compounds and methods for inhibiting Cif virulence factor” (priority 2012, dated 2019).

In assay [1] the target is T1, Cif (Pseudomonas aeruginosa (strain UCBPP-PA14), UniProt A0A0H2ZD27). In words: Secondary screen (sextuplicate) with fluorogenic substrate CMNGC.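 Also: purified enzyme assay in 96-well plates, 200 µL volume, fluorescence recorded each minute across a 60 min reaction.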 Type of assay: biochemical.
Description: All high throughput screening assays were performed using 96-well plates, a 200 μL reaction volume, and a fluorescent plate reader. […] The fluorescent signal was measured after allowing the enzyme reaction to proceed for 60 minutes. The secondary screen was performed using the same conditions as the primary screen, except that fluorescent readings were taken every minute for the 60-minute reaction.
Subsequently, the filtered primary hits were retested to validate the observed inhibitory effect.
Assay [2] concerns the target T1, Cif. In words: Primary high throughput screen with fluorogenic substrate CMNGC.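 Also: fluorescence of 200 µL reactions in 96-well plates read on a plate reader, inhibitor at tenfold molar excess over Cif enzyme.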 Type of assay: biochemical. The note with it: primary screen; test compounds at 10 μM, 1 μM Cif, 25 μM CMNGC, 60 minutes.
Description: All high throughput screening assays were performed using 96-well plates, a 200 μL reaction volume, and a fluorescent plate reader. […] The fluorescent signal was measured after allowing the enzyme reaction to proceed for 60 minutes.
A library of 1600 FDA-approved compounds was screened for Cif inhibitory activity.
The screen was performed with only a 10-fold stoichiometric excess of inhibitor over Cif enzyme.
Setting [3] is: read-out: % Inhibition, Mean ± SD.
Where [4] appears, read: read-out: % Inhibition, plate 1.
The mark [5] stands for this setting: read-out: % Inhibition, plate 2.
Where [6] appears, read: read-out: % Inhibition, plate 3.
Setting [7] is: read-out: % Inhibition, plate 4.
[8] abbreviates: read-out: % Inhibition, plate 5.
Where [9] appears, read: read-out: % Inhibition, plate 6.

Structures are written as SMILES. Structures can show the parent of a compound that is named as a salt.

T1 sequence (A0A0H2ZD27 25-319 limits assumed): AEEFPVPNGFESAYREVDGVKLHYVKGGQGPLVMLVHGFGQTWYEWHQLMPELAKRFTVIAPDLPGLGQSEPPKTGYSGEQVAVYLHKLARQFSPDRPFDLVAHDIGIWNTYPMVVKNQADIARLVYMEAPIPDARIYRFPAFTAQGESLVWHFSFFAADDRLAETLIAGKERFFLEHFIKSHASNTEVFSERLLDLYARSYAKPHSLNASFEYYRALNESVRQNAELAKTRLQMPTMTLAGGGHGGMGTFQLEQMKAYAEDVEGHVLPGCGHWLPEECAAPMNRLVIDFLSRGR

The inhibition is the change of the read-out against control, counted positive when it falls. With `N#C[C@@H]1C[C@@H]2C[C@@H]2N1C(=O)[C@@H](N)C12CC3CC(CC(O)(C3)C1)C2` [Saxagliptin], the inhibition at 10 µM on Cif [1] (setting [3]) came out at 5 ± 4%; at Cif [1] (setting [4]) it was 5%; on Cif [1] (setting [5]) it was 0%; at Cif [1] (setting [6]), 6%; on Cif [1] (setting [7]), 6%; on Cif [1] (setting [8]), 11%. Also, the inhibition at 10 µM at Cif [1] (setting [9]) came out at 3%; at Cif [2] it was 35%.
In the case of `CCCCCCCCCCCCCCOS(=O)(=O)O` [Sodium tetradecyl sulfate], the inhibition at 10 µM came out at 9 ± 4% on Cif [1] (setting [3]); 9% on Cif [1] (setting [4]); 4% at Cif [1] (setting [5]); 12% on Cif [1] (setting [6]); 12% at Cif [1] (setting [7]); 13% at Cif [1] (setting [8]). Also, the values for the inhibition at 10 µM at Cif [1] (setting [9]) and at Cif [2] were 5% and 78%, respectively.
For `Nc1ccc(S(=O)(=O)Nc2ncccn2)cc1` [Sulfadiazine], the inhibition at 10 µM at Cif [1] (setting [3]) was 23 ± 4%; at Cif [1] (setting [4]) it was 23%; on Cif [1] (setting [5]), 24%; at Cif [1] (setting [6]) it was 24%; at Cif [1] (setting [7]), 26%; at Cif [1] (setting [8]), 28%. In addition, the inhibition at 10 µM on Cif [1] (setting [9]) worked out at 15%; against Cif [2], 42%.
With `C=C(NC(=O)C(=C)NC(=O)c1csc(C2=N[C@@H]3c4csc(n4)[C@H]4NC(=O)c5csc(n5)[C@H]([C@](C)(O)[C@@H](C)O)NC(=O)[C@H]5CSC(=N5)/C(=C/C)NC(=O)[C@H]([C@@H](C)O)NC(=O)c5csc(n5)[C@]3(CC2)NC(=O)[C@H](C)NC(=O)C(=C)NC(=O)[C@H](C)NC(=O)[C@H]([C@@H](C)CC)N[C@@H]2C=Cc3c([C@H](C)O)cc(nc3[C@H]2O)C(=O)O[C@@H]4C)n1)C(N)=O` [Thiostrepton], the inhibition at 10 µM was 28 ± 12% at Cif [1] (setting [3]); 14% on Cif [1] (setting [4]); 15% at Cif [1] (setting [5]); 25% on Cif [1] (setting [6]); 27% at Cif [1] (setting [7]); 43% at Cif [1] (setting [8]). Moreover, the results for the inhibition at 10 µM on Cif [1] (setting [9]) and on Cif [2] were 42% and 46%, respectively.
Turning to `CCN(CC)CCOc1ccc2c(c1)C(=O)c1cc(OCCN(CC)CC)ccc1-2` [Tilorone], the inhibition at 10 µM is 6 ± 4% at Cif [1] (setting [3]); 4% at Cif [1] (setting [4]); 5% on Cif [1] (setting [5]); 5% on Cif [1] (setting [6]); 11% at Cif [1] (setting [7]); 10% at Cif [1] (setting [8]). Besides, the values for the inhibition at 10 µM on Cif [1] (setting [9]) and on Cif [2] were 0% and 36%, respectively.
On to `NC[C@H]1O[C@H](O[C@H]2[C@H](O)[C@@H](O[C@H]3O[C@H](CO)[C@@H](O)[C@H](N)[C@H]3O)[C@H](N)C[C@@H]2N)[C@H](N)C[C@@H]1O` [Tobramycin], for which the inhibition at 10 µM at Cif [1] (setting [3]) is -8 ± 7%; at Cif [1] (setting [4]) it was -5%; on Cif [1] (setting [5]) it was -7%; on Cif [1] (setting [6]) it was -5%; at Cif [1] (setting [7]) it was -12%; at Cif [1] (setting [8]) it was 0%. For the same compound, the results for the inhibition at 10 µM on Cif [1] (setting [9]) and at Cif [2] were -21% and 40%, respectively.
On to `CN(C)CCOc1ccc(/C(=C(/CCCl)c2ccccc2)c2ccccc2)cc1` [Toremiphene citrate], for which the inhibition at 10 µM at Cif [1] (setting [3]) came to 10 ± 4%; at Cif [1] (setting [4]) it was 3%; at Cif [1] (setting [5]), 7%; on Cif [1] (setting [6]), 13%; on Cif [1] (setting [7]), 12%; on Cif [1] (setting [8]) it was 15%. Besides, the inhibition at 10 µM at Cif [1] (setting [9]) was determined as 11%; on Cif [2], 31%.
On to `Nc1nc(N)c2nc(-c3ccccc3)c(N)nc2n1` [Triamterene], for which the inhibition at 10 µM is 19 ± 5% on Cif [1] (setting [3]); 15% at Cif [1] (setting [4]); 17% at Cif [1] (setting [5]); 18% at Cif [1] (setting [6]); 21% on Cif [1] (setting [7]); 28% on Cif [1] (setting [8]). Also, the inhibition at 10 µM on Cif [1] (setting [9]) was 16%; at Cif [2] it was 35%.
